The values below are quoted from earlier work in US12551521B2, “Compositions including pine bark extract, berryfruit extract and a source of l-theanine and uses thereof” (AREPA IP LIMITED, priority 2017, dated 2026).

For the data set the following is noted: in vivo.

For the compound `CCNC(=O)CC[C@H](N)C(=O)O` [L-theanine, γ-glutamylethylamide], the blood-brain barrier crossing result is “known to cross the blood-brain barrier”.
